Experimental data: patent publication US4963570A, “1-(acetylaminophenyl)-2-aminopropanone derivatives and pharmaceutical compositions thereof” (Laboratoire L. Lafon, priority 1983, dated 1990)
“Also recorded” adds a separate entry of the source. Structures can show the parent of a compound that is named as a salt.

Columns and labels:
[1] = tested on: spleen cells expressing a direct IgM antibody response; assay: test for cells forming lysis areas (PFC IgM, Cunningham); assay type: in vivo, mouse; conditions: 1 mg/kg
mice [2] = assay: interaction with oxotremorine; assay type: in vivo, mouse; conditions: i.p.
Procedure: CRL 41 224 is administered to groups of 6 mice 0.5 hour before the intraperitoneal injection of 0.5 mg/kg of oxotremorine.

mice [3] = assay: overall behavior and reactivities in mice; assay type: in vivo, mouse; conditions: mice, i.p.; dose not stated
Procedure: (§1) Groups of three animals are observed before and then 0.25 hour, 0.50 hour, 1 hour, 2 hours, 3 hours and 24 hours after the administration of CRL 41 224.

rats [4] = assay: interaction with amphetamine; assay type: in vivo, rat; conditions: rats, i.p.; dose not stated
Procedure: Amphetamine (2 mg/kg) is injected intraperitoneally into groups of 6 rats 30 minutes after the administration of CRL 41 224.

mice [5] = assay: motility reduced by habituation to the enclosure; assay type: in vivo, mouse; conditions: i.p.
Procedure: After they have stayed in the actimeters for 18 hours, the mice (6 per dose, 12 control animals) receive CRL 41 224. They are immediately returned to their respective enclosures and, half an hour later, their motility is recorded for 30 minutes.

mice [6] = assay: interaction with apomorphine in mice; assay type: in vivo, mouse; conditions: i.p.
Procedure: Groups of 6 mice receive CRL 41 224 0.5 hour before the subcutaneous injection of 1 or 16 mg/kg of apomorphine.

mice [7] = assay: interaction with reserpine; assay type: in vivo, mouse; conditions: i.p.
Procedure: Four hours after the intraperitoneal injection of 2.5 mg/kg of reserpine, groups of 6 mice receive CRL 41 224.

mice [8] = assay: asphyxiant anoxia (gallamine triiodoethylate); assay type: in vivo, mouse; conditions: i.p., high dose
Procedure: Groups of 10 mice receive CRL 41 224 half an hour before the intraperitoneal administration of 32 mg/kg of gallamine triiodoethylate (reference curarizing agent).

mice [9] = assay: action on the spontaneous motility (actimeter); assay type: in vivo, mouse; conditions: mice, i.p.; dose not stated
Procedure: 0.5 hour after they have received CRL 41 224, the mice (6 per dose, 12 control animals) are placed in an actimeter, where their motility is recorded for 30 minutes.

mice [10] = assay: action on the behavioral despair; assay type: in vivo, mouse; conditions: i.p., dose not stated
From the text: Half an hour after they have received CRL 41 224, groups of 6 mice are placed in a beaker filled with water to a height of 6 cm. The total period of immobility between the 2nd and 6th minutes following immersion is noted.

[11] = tested on: peripheral α-adrenergic stimulation; assay: signs of peripheral adrenergic stimulation; assay type: in vivo, mouse; rat; conditions: i.p.; dose not stated
Procedure: as §1

CNS = assay: overall neuropsychopharmacological (CNS) profile; assay type: in vivo, mouse; rat; conditions: i.p.
Procedure: The neuropsychopharmacological study of CRL 41 219 was carried out as indicated above for CRL 41 224.
The neuropsychopharmacological study of CRL 41 220 was carried out in accordance with the procedures given above for CRL 41 224.

mice [12] = assay: interaction with barbital; assay type: in vivo, mouse; conditions: i.p.
Procedure: Half an hour after the administration of CRL 41 224, groups of 10 mice receive an intraperitoneal injection of barbital (220 mg/kg).

[13] = tested on: spleen cells expressing a direct IgM antibody response; assay: test for cells forming lysis areas (PFC IgM, Cunningham); assay type: in vivo, mouse; conditions: oral; for activity index I / counts ± e.s.m. (lysis areas per spleen): mice
Procedure: Immunological assays were carried out in order to point out the interest of CRL 41 240 as an immunomodulating agent. Specifically, the test used was the so-called test for cells forming lysis areas, described by A. J. […] et al. ("Further improvements in the plaque technique for detecting simple antibody forming cells"), Immunology 14, pages 599-601 (1968).
The test for cells forming lysis areas (or PFC IgM) explores the humoral immunity. Four days after immunization with a T-dependent antigen (in this case red blood corpuscles of sheep), the spleen cells expressing a direct IgM antibody response are counted. The mice used for this purpose are conventional female OF1 mice devoid of specific pathogenic organisms, weighing from 20 to 30 g and divided up into a control group of 14 animals and groups each containing 7 animals per dose and per product to be studied, administered orally on the same day as the antigen. An activity index I is calculated for each dose of product according to the following equation: [formula]
This test is performed at least twice for each dose of test product [C(control amimals), 0.01, 0.1, 10 and 100 mg/kg] and a statistical study is undertaken using the Student t test after variance analysis on the number of lyses per spleen.

mice [14] = assay: four plate test, traction and electric shock; assay type: in vivo, mouse; conditions: i.p., strong/high dose
Procedure: The test is performed on groups of 10 mice 30 minutes after the administration of CRL 41 224.

male mice [15] = assay: acute toxicity, intraperitoneal (lethal doses); assay type: in vivo, mouse; conditions: i.p.
Procedure: By intraperitoneal administration to male mice, the LD-30 (lethal dose for 30% of the animals tested) is of the order of 128 mg/kg and the LD-50 is of the order of about 200 mg/kg.

immunological properties = assay: immunological properties, overall; assay type: in vivo; conditions: dose not stated
From the text: The present 1-(acetylaminophenyl)-2-aminopropanone derivatives are useful in therapy. They all act on the CNS, more precisely as antidepressants. They have a stimulant or excitant component in their neuropsychopharmacological profile.

mice [16] = assay: motility reduced by hypoxic aggression; assay type: in vivo, mouse; conditions: i.p., dose not stated
Procedure: Half an hour after they have received CRL 41 224, the mice (10 per dose, 20 control animals) are subjected to acute hypobaric anoxia [pressure reduction of 600 mm Hg (i.e. about 8×10^4 Pa) in 90 seconds; release of vacuum in 45 seconds] and are then placed in an actimeter, where their motility is recorded for 10 minutes.

rats [17] = assay: overall behavior and reactivities in rats; assay type: in vivo, rat; conditions: i.p., dose not stated
Procedure: as §1

rats [18] = assay: interaction with apomorphine in rats; assay type: in vivo, rat; conditions: i.p., dose not stated
Procedure: CRL 41 224 is administered to groups of 6 rats 0.5 hour before the subcutaneous injection of 0.5 mg/kg of apomorphine.

male mice [19] = assay: interaction with proadifen: hypothermia induced by apomorphine; assay type: in vivo, mouse
Procedure: (§2) Two series of experiments were carried out. In the first one, male mice (12 per dose, 12 control animals) were administered per I.P. route (i) with proadifen (75 mg/kg) at T-3 h, then (ii) with CRL 41 152 at T-0.5 h. At T=0 the mice were placed in actimeters, where their motility was recoded for 0.5 h. In the second one male mice (12 per dose, 12 control animals) were administered with proadifen and CRL 41 152 as indicated hereinabove, then subcutaneously with apomorphine (16 mg/kg) at T=0 in order to appreciate the potential variation of the hypothermia induced by apomorphine.
(§3) In these two series CRL 41 152, in solution in distilled water, was administered per I.P. route to male mice in a volume of 20 ml/kg.

male mice [20] = assay: interaction with proadifen: motility; assay type: in vivo, mouse; conditions: i.p., administered alone
Procedure: as §2, §3

[21] = tested on: delayed hypersensitivity to the red blood corpuscles of sheep; assay: delayed hypersensitivity to the red blood corpuscles of sheep (Miller); assay type: in vivo; conditions: oral, 10 to 100 mg/kg

For CC(=O)Nc1ccc(C(=O)C(C)N2CCCCC2)cc1 (stereo not shown) [CRL 41 240, 1-(4-acetylaminophenyl)-2-piperidinopropanone hydrochloride], the “activity index I” value ([1]; mice, oral) was 1.65, the “counts ± e.s.m. (lysis areas per spleen)” value ([1]; mice, oral) was 86.5 ± 13.74 m.10^3 /rate and the “hypothermia induced by oxotremorine” value (mice [2]; dose not stated) was “antagonism of the hypothermia induced by apomorphine, reserpine and oxotremorine”. The excitation in mice (mice [3]) was “excitation in mice”, the “stereotype movements in mice” value (mice [3]) was “presence of stereotype movements” and the “stereotypies induced by amphetamine” value (rats [4]) was “potentiation of the stereotypies induced by apomorphine and amphetamine”. The “motor activity after habituation to the enclosure” value (mice [5]; dose not stated) was “resumption in the activity of mice accustomed to their enclosure”, the “hypothermia induced by apomorphine” value (mice [6]; dose not stated) was “antagonism of the hypothermia induced by apomorphine” and the “hypothermia induced by reserpine” value (mice [7]; dose not stated) was “antagonism of the hypothermia induced by apomorphine, reserpine”. For the same molecule, the “ptosis induced by reserpine” value (mice [7]; dose not stated) was “antagonism of the ptosis induced by reserpine”, the “time taken for asphyxiant convulsions (and death) to occur” value (mice [8]) was “increase in the time taken for asphyxiant convulsions to occur” and the “spontaneous motility / motor activity” value (mice [9]) was “increase in the motor activity”. The “period of immobility or "despair"” value (mice [10]) was “reduction in the period of immobility”, the exophthalmos [11] was “exophthalmos” and the mydriasis [11] was “mydriasis”. For the same molecule, the “peripheral adrenergic stimulation, overall” value [11] was “peripheral α-adrenergic stimulation”, the “overall action on the CNS” value (CNS; mice and rats, dose not stated) was “behaves as an antidepressant and stimulant for the CNS” and the “sleep induced by barbital” value (mice [12]; dose not stated) was “very distinct antagonism of the sleep induced by barbital”. For the same molecule, the minimal effective dose ([13]; Mus musculus, female OF1 mice, read-out: lowest immunologically active dose) was 0.1 mg/kg, the “activity index I” value ([13]; 0.01 mg/kg) was 1.23 and the “counts ± e.s.m. (lysis areas per spleen)” value ([13]; 0.01 mg/kg) was 64.5 ± 11.99 m.10^3 /rate. For the same molecule, the “activity index I” value ([13]; 0.1 mg/kg) was 1.25, the “counts ± e.s.m. (lysis areas per spleen)” value ([13]; 0.1 mg/kg) was 65.7 ± 11.60 m.10^3 /rate and the “activity index I” value ([13]; 10 mg/kg) was 1.52. The “counts ± e.s.m. (lysis areas per spleen)” value ([13]; 10 mg/kg) was 79.4 ± 11.54 m.10^3 /rate, the “activity index I” value ([13]; 100 mg/kg) was 1.31 and the “counts ± e.s.m. (lysis areas per spleen)” value ([13]; 100 mg/kg) was 68.8 ± 7.21 m.10^3 /rate. The “convulsant effects of electric shock” value (mice [14]) was “antagonism of the convulsant effects of electric shock”, the “LD-0 (maximum non-lethal dose)” value (male mice [15]) was “greater than 256 mg/kg” and the “immunological properties, overall” value (immunological properties) was “beneficial immunomodulating effects”. The “motor recovery after hypoxic aggression” value (mice [16]) was “improvement in the motor recovery”, the excitation in rats (rats [17]) was “excitation in mice and rats” and the “stereotype movements in rats” value (rats [17]) was “presence of stereotype movements”. The “stereotypies induced by apomorphine” value (rats [18]) was “potentiation of the stereotypies induced by apomorphine”.

With CCCC(C(=O)OCCN(CC)CC)(c1ccccc1)c1ccccc1 [Proadifen, reference compound] the “righting behaviour and stereotypies induced by apomorphine” value (male mice [19]; i.p., apomorphine 16 mg/kg s.c.) was “Neither proadifen, nor CRL 41 152, nor their combination modify the righting behaviour”, the “body temperature, used alone” value (male mice [19]; proadifen 75 mg/kg i.p.) was “important hypothermic effect” and the “hypothermia induced by apomorphine” value (male mice [19]; proadifen 75 mg/kg i.p., apomorphine 16 mg/kg s.c.) was “does not modify the hypothermia induced by apomorphine”. For the same molecule, the spontaneous motility (male mice [20]) was “induces hypomotility”.

CC(=O)Nc1cccc(C(=O)C(C)NC(C)C)c1 (stereo not shown) [CRL 41 254] was tested, and the “immunostimulant activity, delayed hypersensitivity” value [21] was “statistically significant immunostimulant activity”, the “immunostimulant activity, PFC IgM test” value [1] was “statistically significant immunostimulant activity” and the “hypothermia induced by oxotremorine” value (mice [2]; strong/high doses) was “antagonism of the hypothermia induced by apomorphine and oxotremorine”. The “motor activity after habituation to the enclosure” value (mice [5]; strong doses) was “a moderate resumption in the motor activity of mice accustomed to their enclosure”, the “hypothermia induced by apomorphine” value (mice [6]; strong doses) was “antagonism of the hypothermia induced by apomorphine” and the “hypothermia induced by reserpine” value (mice [7]; strong doses) was “no antagonism of the hypothermia induced by reserpine”. The “overall action on the CNS” value (CNS; strong/high doses) was “modest antidepressant effects; also recorded: weak stimulant effects”, the “duration of the sleep induced by barbital” value (mice [12]; strong/high doses) was “a reduction in the duration of the sleep induced by barbital” and the “LD-0 (maximum non-lethal dose)” value (male mice [15]) was “greater than 256 mg/kg”. For the same molecule, the LD-100 (male mice [15]) was “less than or equal to 512 mg/kg” and the “immunological properties, overall” value (immunological properties) was “beneficial immunomodulating effects”.
